Results from publication PMC3371050, “Characterisation of a Novel White Laccase from the Deuteromycete Fungus Myrothecium verrucaria NF-05 and Its Decolourisation of Dyes” (PLoS ONE, 2012).
Read-outs that look alike come from different tables or passages of the source. Blank lines part the entries; values can stand above or below the compound they belong to.

Tests used:
Conditions in all cases: 0.2 M citric acid pH 4.0, 30°C
[1] = tested on: T1, white laccase from Myrothecium verrucaria NF-05; test: oxidation at […] nm, Lineweaver-Burk; assay type: biochemical, Albifimbria verrucaria
T1 construct: native extracellular enzyme purified from culture medium; about 66 kDa monomer; 3 Cu and 1 Fe per molecule; no bilirubin oxidase activity detected in the fermentation liquid

[2] = tested on: white laccase from Myrothecium verrucaria NF-05
[3] = tested on: white laccase from Myrothecium verrucaria NF-05; remark: listed apart in the source
[4] = tested on: T1, white laccase from Myrothecium verrucaria NF-05; test: oxidation at […] nm, Lineweaver-Burk; assay type: biochemical, Albifimbria verrucaria; remark: listed apart in the source

Compound: Oc1ccccc1O [catechol]
Km [1]: 329 µM

Km [2]: 85.9 µM
Compound: CCn1c(=NN=c2sc3cc(S(=O)(=O)O)ccc3n2CC)sc2cc(S(=O)(=O)O)ccc21 [ABTS, 2,2′-azinobis-(3-ethylbenzothiazoline-6-sulphonic acid)]

Km [3]: 2090 µM
Compound: Oc1ccc(O)cc1 [hydroquinone]

Km [4]: 312 µM
Compound: COc1ccccc1O [guaiacol]
